Measurements reported in patent US9617289B2, “RSV antiviral compounds” (JANSSEN R&D IRELAND, priority 2012, dated 2017).
Structures can show the parent of a compound that is named as a salt.

The molecules below were run on rgRSV224 virus (assay: Antiviral activity: inhibition of rgRSV224 (GFP-expressing RSV) replication in HeLa cells). Settings: human respiratory syncytial virus, HeLa, 72 h, read-out: RSV-wt_pEC50, rgRSV224 (MOI=0.02) in HeLa cells, GFP expression three days post-virus exposure.
Assay type: cell-based, respiratory syncytial virus
Procedure: Black 96-well clear-bottom microtiter plates (Corning, Amsterdam, The Netherlands) were filled in duplicate using a customized robot system with serial 4-fold dilutions of compound in a final volume of 50 μl culture medium [RPMI medium without phenol red, 10% FBS, 0.04% gentamycin (50 mg/ml) and 0.5% DMSO]. Then, 100 μl of a HeLa cell suspension (5×10^4 cells/ml) in culture medium was added to each well followed by the addition of 50 μl rgRSV224 (MOI=0.02) virus in culture medium using a multidrop dispenser (Thermo Scientific, Erembodegem, Belgium). rgRSV224 virus is an engineered virus that includes an additional GFP gene (Hallak et al, 2000) and was in-licensed from the NIH (Bethesda, Md., USA). Medium, virus- and mock-infected controls were included in each test. Cells were incubated at 37° C. in a 5% CO2 atmosphere. Three days post-virus exposure, viral replication was quantified by measuring GFP expression in the cells by a MSM laser microscope (Tibotec, Beerse, Belgium). The EC50 was defined as the 50% inhibitory concentration for GFP expression. In parallel, compounds were incubated for three days in a set of white 96-well microtitier plates (Corning) and the cytotoxicity of compounds in HeLa cells was determined by measuring the ATP content of the cells using the ATPlite kit (PerkinElmer, Zaventem, Belgium) according to the manufacturer's instructions. The CC50 was defined as the 50% concentration for cytotoxicity. SI is calculated as CC50/EC50.

**Q.** `N#CCCCn1c(CN2C(=O)C3(CN(S(=O)(=O)c4cccs4)C3)c3ccccc32)nc2cc(Cl)ccc21` [Compound 91] was tested. Which EC50 did it give?
**A.** 0.234 nM

**Q.** With `N#CCCCn1c(CN2C(=O)C3(CN(C(=O)OC4COC4)C3)c3ccccc32)nc2cc(Cl)ccc21` [Compound 92, Oxetan-3-yl 1′-{[5-chloro-1-(3-cyanopropyl)-1H-benzimidazol-2-yl]methyl}-2′-oxo-1′,2′-dihydro-1H-spiro[azetidine-3,3′-indole]-1-carboxylate] as the molecule, how does the EC50 read?
**A.** 0.0692 nM

**Q.** Which EC50 does the source give for `N#CCCCn1c(CN2C(=O)C3(CN(S(=O)(=O)c4ccc(F)cc4)C3)c3ccccc32)nc2cc(Cl)ccc21` [Compound 93, 4-[5-Chroro-2-({1-[(4-fluorophenyl)sulfonyl]-2′-oxospiro-[azetidine-3,3′-indol]-1′(2′H)-yl}methyl)-1H-benzimidazol-1-yl]butanenitrile] here?
**A.** 1.62 nM

**Q.** `CC(=O)NS(=O)(=O)N1CCC2(CC1)C(=O)N(Cc1nc3cc(Cl)ccc3n1CCCC#N)c1cnccc12` [Compound 95, N-[(1′-{[5-Chloro-1-(3-cyanopropyl)-1H-benzimidazol-2-yl]methyl}-2′-oxo-1′,2′-dihydro-1H-spiro[piperidine-4,3′-pyrrolo[2,3-c]pyridin]-1-yl)sulfonyl]acetamide] was tested. Which EC50 did it give?
**A.** 0.0794 nM

**Q.** How did the EC50 turn out when `N#CCCCn1c(CN2C(=O)C3(CCN(S(=O)(=O)c4cccs4)CC3)c3ccncc32)cc2cc(Cl)ccc21` [Compound 96, 4-(5-Chloro-2-{[2′-oxo-1-(thiophen-2-ylsulfonyl)spiro-[piperidine-4,3′-pyrrolo[2,3-c]pyridin]-1′(2′H)-yl]methyl}-1H-indol-1-yl)butanenitrile] was run?
**A.** 0.427 nM

**Q.** For `CC(C)CCn1c(CN2C(=O)C3(CCN(C(=O)OC(C)(C)C)CC3)c3ccncc32)cc2cnccc21` [Compound 97, tert-Butyl 1′-{[1-(3-methylbutyl)-1H-pyrrolo[3,2-c]pyridin-2-yl]methyl}-2′-oxo-1,2′-dihydro-1H-spiro[piperidine-4,3′-pyrrolo[2,3-c]pyridine]-1-carboxylate], which EC50 is on record?
**A.** 1.45 nM

**Q.** Which EC50 does the source give for `COC(=O)N1CCC2(CC1)C(=O)N(Cc1nc3cc(Cl)ccc3n1CCCC#N)c1cnccc12` [Compound 98, Methyl 1′-{[5-chloro-1-(3-cyanopropyl)-1H-benzimidazol-2-yl]methyl}-2′-oxo-1′,2′-dihydro-1H-spiro[piperidine-4,3′-pyrrolo[2,3-c]pyridine]-1-carboxylate] here?
**A.** 0.0676 nM

**Q.** Which EC50 does the source give for `CC(C)OC(=O)N1CCC2(CC1)C(=O)N(Cc1nc3cc(Cl)ccc3n1CCCC#N)c1cnccc12` [Compound 99, 1-Methylethyl 1′-{[5-chloro-1-(3-cyanopropyl)-1H-benzimidazol-2-yl]methyl}-2′-oxo-1′,2′-dihydro-1H-spiro[piperidine-4,3′-pyrrolo[2,3-c]pyridine]-1-carboxylate] here?
**A.** 0.024 nM

**Q.** With `NC(=O)CCCn1c(CN2C(=O)C3(CNC3)c3ccccc32)nc2cc(Cl)ccc21` [Compound 100, 4-{5-Chloro-2-[(2′-oxospiro[azetidine-3,3′-indol]-1′(2′H)-yl)methyl]-1H-benzimidazol-1-yl}butanamide] as the molecule, how does the EC50 read?
**A.** 263 nM

**Q.** For `N#CCCCn1c(CN2C(=O)C3(CNC3)c3ccccc32)nc2cc(Cl)ccc21` [Compound 101, 4-{5-Chloro-2-[(2′-oxospiro[azetidine-3,3′-indol]-1′(2′H)-yl)methyl]-1H-benzimidazol-1-yl}butanenitrile], which EC50 is on record?
**A.** 0.891 nM

**Q.** For `N#CCCCn1c(CN2C(=O)C3(CCN(C(=O)OC4CCC4)CC3)c3ccncc32)cc2cc(Cl)ccc21` [Compound 103, Cyclobutyl 1′-{[5-chloro-1-(3-cyanopropyl)-1H-indol-2-yl]-methyl}-2′-oxo-1′,2′-dihydro-1H-spiro[piperidine-4,3′-pyrrolo[2,3-c]pyridine]-1-carboxylate], which EC50 is on record?
**A.** 0.263 nM

**Q.** `CC(C)(O)C(=O)N1CCC2(CC1)C(=O)N(Cc1cc3cc(Cl)ccc3n1CCCCF)c1cnccc12` [Compound 106, 1′-{[5-Chloro-1-(4-fluorobutyl)-1H-indol-2-yl]methyl}-1-(2-hydroxy-2-methylpropanoyl)spiro[piperidine-4,3′-pyrrolo-[2,3-c]pyridin]-2′(1′H)-one] was tested. Which EC50 did it give?
**A.** 0.24 nM

**Q.** How did the EC50 turn out when `CC(C)(O)C(=O)N1CCC2(CC1)C(=O)N(Cc1nc3cc(Cl)ccc3n1CCCC#N)c1cnccc12` [Compound 107, 4-(5-Chloro-2-{[1-(2-hydroxy-2-methylpropanoyl)-2′-oxo-spiro[piperidine-4,3′-pyrrolo[2,3-c]pyridin]-1′(2′H)-yl]-methyl}-1H-benzimidazol-1-yl)butanenitrile] was run?
**A.** 0.0794 nM

**Q.** How did the EC50 turn out when `N#CCCCn1c(CN2C(=O)C3(CCS(=O)(=O)CC3)c3ccncc32)nc2cc(Cl)ccc21` [Compound 108, 4-{5-Chloro-2-[(1′,1′-dioxido-2-oxo-2′,3′,5′,6′,-tetrahydro-spiro[pyrrolo[2,3-c]pyridine-3,4′-thiopyran]-1(2H)-yl)-methyl]-1H-benzimidazol-1-yl}butanenitrile] was run?
**A.** 0.871 nM

**Q.** How did the EC50 turn out when `N#CCCCn1c(CN2C(=O)C3(CC(O)C3)c3ccccc32)nc2cc(Cl)ccc21` (centres unmarked) [Compound 109, 4-{5-Chloro-2-[(3-hydroxy-2′-oxospiro[cyclobutane-1,3′-indol]-1′(2′H)-yl)methyl]-1H-benzimidazol-1-yl}butanenitrile] was run?
**A.** 0.191 nM

**Q.** How did the EC50 turn out when `N#CCCCn1c(COC2CC3(C2)C(=O)N(Cc2nc4cc(Cl)ccc4n2CCCC#N)c2ccccc23)nc2cc(Cl)ccc21` [Compound 110, 4-(5-chloro-2-(((1S,3S)-1′-((5-chloro-1-(3-cyanopropyl)-1H-benzo[d]imidazol-2-yl)methyl)-2′-oxospiro[cyclobutane-1,3′-indoline]-3-yloxy)methyl)-1H-benzo[d]imidazol-1-yl)butanenitrile] was run?
**A.** 1.45 nM

**Q.** With `NS(=O)(=O)N1CCC2(CC1)C(=O)N(Cc1cc3cc(Cl)ccc3n1CCCCF)c1cnccc12` [Compound 111, 1′-{[5-Chloro-1-(4-fluorobutyl)-1H-indol-2-yl]methyl}-2′-oxo-1′,2′-dihydro-1H-spiro[piperidine-4,3′-pyrrolo[2,3-c]-pyridine]-1-sulfonamide] as the molecule, how does the EC50 read?
**A.** 0.123 nM

Same assay, conditions: human respiratory syncytial virus, HeLa, 72 h, read-out: pEC50, rgRSV224 (MOI=0.02) in HeLa cells, GFP expression three days post-virus exposure (converted)

**Q.** For `CC(C)(C)OC(=O)N1CCC2(CC1)C(=O)N(Cc1cc3nc(Cl)ccc3n1CCCCF)c1cnccc12` [Compound 69, tert-butyl 1′-((5-chloro-1-(4-fluorobutyl)-1H-pyrrolo[3,2-b]-pyridin-2-yl)methy)-2′-oxo-1′,2′-dihydrospiro[piperidine-4,3′-pyrrolo[2,3-c]pyridine]-1-carboxylate], which EC50 is on record?
**A.** 5.01 nM

**Q.** How did the EC50 turn out when `CC(C)(O)C(=O)N1CCC2(CC1)C(=O)N(Cc1cc3cc(Cl)ccc3n1CCCS(C)(=O)=O)c1cnccc12` [Compound 74, 1′-((5-chloro-1-(3-(methylsulfonyl)propyl)-1H-indol-2-yl)-methyl)-1-(2-hydroxy-2-methylpropanoyl)spiro[piperidine-4,3′-pyrrolo[2,3-c]pyridin]-2′(1′H)-one] was run?
**A.** 0.2 nM

**Q.** With `COC(=O)N1CCC2(CC1)C(=O)N(Cc1cc3cc(Cl)ccc3n1CCCC#N)c1cnccc12` [Compound 76] as the molecule, how does the EC50 read?
**A.** < 0.158 nM

**Q.** Which EC50 does the source give for `CC(C)OC(=O)N1CCC2(CC1)C(=O)N(Cc1cc3cc(Cl)ccc3n1CCCC#N)c1cnccc12` [Compound 77, isopropyl 1′-((5-chloro-1-(3-cyanopropyl)-1H-indol-2-yl)-methyl)-2′-oxo-1′,2′-dihydrospiro[piperidine-4,3′-pyrrolo-[2,3-c]pyridine]-1-carboxylate] here?
**A.** < 0.158 nM

**Q.** `N#CCCCn1c(CN2C(=O)C3(CCNCC3)c3ccncc32)cc2cc(Cl)ccc21` [Compound 78, 4-(5-chloro-2-((2′-oxospiro[piperidine-4,3′-pyrrolo[2,3-c]-pyridin]-1′(2′H)-yl)methyl)-1H-indol-1-yl)butanenitrile hydrochloride] was tested. Which EC50 did it give?
**A.** 0.631 nM

**Q.** How did the EC50 turn out when `N#CCCCn1c(CN2C(=O)C3(CCNCC3)c3ccncc32)nc2cc(Cl)ccc21` [Compound 84, 4-(5-chloro)-2-((2′-oxospiro[piperidine-4,3′-pyrrolo[2,3-c]-pyridin]-1′(2′H)-yl)methyl)-1H-benzo[d]imidazol-1-yl)butanenitrile hydrochloride] was run?
**A.** 0.631 nM

**Q.** With `CC(C)(O)C(=O)N1CCC2(CC1)C(=O)N(Cc1cc3cc(Cl)ccc3n1CCCC#N)c1cnccc12` [Compound 86, 4-(5-chloro-2-((1-(2-hydroxy-2-methylpropanoyl)-2′-oxospiro[piperidine-4,3′-pyrrolo[2,3-c]pyridin]-1′(2′H)-yl)methyl)-1H-indol-1-yl)butanenitrile] as the molecule, how does the EC50 read?
**A.** < 0.158 nM

**Q.** With `CC(=O)N1CC2(C1)C(=O)N(Cc1nc3cc(Cl)ccc3n1CCCC#N)c1ccccc12` [Compound 88, 4-(2-((1-acetyl-2′-oxospiro[azetidine-3,3′-indolin]-1′-yl)-methyl)-5-chloro-1H-benzo[d]imidazol-1-yl)butanenitrile] as the molecule, how does the EC50 read?
**A.** 0.398 nM

**Q.** How did the EC50 turn out when `N#CCCCn1c(CN2C(=O)C3(CCN(S(N)(=O)=O)CC3)c3ccncc32)nc2cc(Cl)ccc21` [Compound 89, 1′-((5-chloro-1-(3-cyanopropyl)-1H-benzo[d]imidazol-2-yl)-methyl)-2′-oxo-1′,2′-dihydrospiro[piperidine-4,3′-pyrrolo-[2,3-c]pyridine]-1-sulfonamide] was run?
**A.** 0.0794 nM
